Earlier results as cited in patent US7838696B2, “Hydroconversion process employing multi-metallic catalysts and method for making thereof” (Chevron U. S. A. Inc., priority 2007, dated 2010).

Tested on: rats
Conditions: rat, in vivo, po

In the case of `O=CC(=O)O` [glyoxylic, glyoxylic acid], the LD50 is listed as 3000 mg/kg.
